Laboratory results taken from patent US10702489B2, “Treatment of nervous system disorders using combinations of RXR agonists and thyroid hormones” (IO Therapeutics, Inc., priority 2015, dated 2020).
“Also recorded” adds a separate entry of the source.

Legend:
RXRα = target: T1, RXRα (Homo sapiens, UniProt P19793)
T1 sequence (P19793 1-462): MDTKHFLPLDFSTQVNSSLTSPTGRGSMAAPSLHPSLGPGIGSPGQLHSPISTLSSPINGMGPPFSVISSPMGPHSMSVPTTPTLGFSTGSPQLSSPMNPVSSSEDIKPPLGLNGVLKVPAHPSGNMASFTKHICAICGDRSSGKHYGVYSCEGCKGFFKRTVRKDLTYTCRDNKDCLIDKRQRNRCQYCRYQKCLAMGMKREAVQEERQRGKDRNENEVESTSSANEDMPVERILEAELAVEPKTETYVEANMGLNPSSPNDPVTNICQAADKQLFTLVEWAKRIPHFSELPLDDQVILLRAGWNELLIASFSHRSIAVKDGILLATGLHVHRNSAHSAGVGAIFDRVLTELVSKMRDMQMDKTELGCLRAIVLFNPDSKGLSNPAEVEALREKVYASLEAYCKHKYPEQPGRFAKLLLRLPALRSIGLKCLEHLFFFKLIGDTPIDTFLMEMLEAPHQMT
Experimental: (§1) To determine whether a RXR agonist can mediate its effects via RXRα receptor homodimers, RXRβ receptor homodimers, RXRγ receptor homodimers, or any combination thereof, or the corresponding RAR/RXR heterodimers, receptor-mediated transactivation assays were performed. For transactivation assays assessing RXR homodimer signaling, CV-1 cells were transfected with 1) an expression construct including a full length RXRα, RXRβ, or RXRγ; and 2) a rCRBPII/RXRE-tk-Luc reporter construct that included RXR homodimer-specific RXRE/DR1 responsive element linked to a luciferase gene. For transactivation assays assessing RAR/RXR heterodimer signaling, CV-1 cells were transfected with 1) an expression construct comprising a fusion protein including an estrogen receptor (ER) DNA binding domain linked to the ligand binding domain of RARα, RARβ, or RARγ and 2) a ERE-tk-Luc reporter construct that included an estrogen receptor responsive element linked to a luciferase gene. […] Data are mean values±SE from five independent experiments.

RXRγ = RXRγ (Homo sapiens, UniProt P48443)
Experimental: as §1

[1] = tested on: C57BL/6 (B6) mice with experimental autoimmune encephalomyelitis (EAE); assay: EAE in C57BL/6 (B6) mice, MOG peptide; assay type: in vivo, mouse; conditions: IRX4204 50 μg every other day from day 7 to day 20
Experimental: Mice were also given 200 ng of pertussis toxin in PBS administered by inter-peritoneal (i.p.) injection on the same day as MOG emulsion injection (day 0) and 2 days later (day 2). […] Mice were scored using the following scale: 0—Mice have no disease, 1—Mice have distal limp tail or rear leg weakness (paresis), 1.5—Mice have distal limp tail and rear leg weakness, 2—Mice have complete limp tail and rear leg weakness, 2.5—Mice have complete limp tail and weakness in both rear legs, 3—Mice have complete limp tail and paralysis in both rear legs, 3.5—Mice have complete limp tail, paralysis in both rear legs, and forelimb weakness. Mice receiving a score of 3.5 were immediately euthanized.

B6 mice with EAE = assay: EAE dose titration in B6 mice with spleen and CNS analysis; assay type: in vivo, mouse
Experimental: A dose titration experiment was also conducted in EAE mice. EAE was induced in 28 B6 mice with MOG/CFA and PT as above. Mice were scored on day 7 as indicated above and divided into groups by score so means are as equal as possible.
At the completion of the experiment, the vehicle control and 200 μg/day groups were euthanized and spleen and CNS samples obtained.

[2] = tested on: C57BL/6 (B6) mice with EAE; assay: CNS infiltrating cells in EAE B6 mice; assay type: in vivo, mouse; conditions: day 20 after immunization
Experimental: To determine whether a RXR agonist can reduce central nervous system (CNS) infiltrating cells, C57BL/6 (B6) mice were treated as described in Example 6. On day 20 after immunization, mice were sacrificed and perfused with phosphate buffered saline (PBS). Brain and spinal cord tissue was isolated, digested with DNase and LIBERASE DL® (Roche Diagnostics, Indianapolis, Ind.) for 30 minutes, and homogenized through 70 micron nylon mesh filters. Resulting cells were placed over a Percoll gradient to remove myelin. The remaining cells (microglia and CNS infiltrating cells) were counted, stained for molecules of interest, and run on a flow cytometer. Based on the frequencies obtained by FACS of these cell populations, total cell numbers of CNS infiltrating leukocytes expressing CD45, including CD4^+ T cells and CD11c^+ CD11b^+ myeloid dendritic cells (DC), were calculated.

SJL mice with EAE = assay: EAE in SJL mice, PLP peptide; assay type: in vivo, mouse
Experimental: To determine whether a RXR agonist can attenuate multiple sclerosis, SJL mice were immunized to induce EAE by s.c. injection at the base of their spine with 200 μL of adjuvant containing 200 μg proteolipid proteins (139-151) (PLP peptide; Peptides International, Louisville, Ky.) and 400 μg of non-viable M. tuberculosis H37 desiccate emulsified in a mixture of incomplete Freund's adjuvant and PBS. Mice were also given 150 ng of pertussis toxin in PBS i.p. on the same day as PLP emulsion injection and 2 days later. […] Mice were scored using the scale described in Example 3.

Nurr1/RXR heterodimer = target: T2, Nurr1/RXR heterodimer (Homo sapiens, UniProt P19793); assay: receptor transactivation assay Nurr1/RXR; assay type: cell-based; conditions: COS7 cells
T2 construct: full length Nurr-1 with or without full-length RXRα plasmid; expressed in transfected cells; host or cells: COS7
Text: For PPARγ: CV-1 cells were transfected with 3×(rAOX/DR1)-tk-Luc reporter gene and an expression vector for PPARγ. For FXR:CV-1 cells were transfected with 3×(IBABP/IRI)-tk-Luc reporter gene and vectors for FXR and RXRα. For LXR:CV-1 cells were transfected with 3×(PLTP/LXRE)-tk-Luc reporter gene with vectors for LXRα or LXRβ. For Nurr1: COS7 cells were transfected with 3×NBRE-tk-luc reporter gene and full length Nurr-1 with or without full-length RXRα plasmid. […] Luciferase data were normalized to co-transfected β-gal activity. Luciferase activity was expressed as percent of maximal activity obtained using specific agonists. Rosiglitazone (PPARγ), GW4064 (FXR), T0901317 (LXR).

[3] = tested on: oligodendrocyte precursor cells (OPCs); assay: oligodendrocyte precursor cell differentiation (PLP-EGFP); assay type: cell-based, mouse
Text: OPCs were generated from a neurosphere culture of E14.5 PLP-EGFP (on C57BL/6J background) mouse brains. […] The EGFP expressing cells were quantified with Cellomics Neuronal Profiling Algorithm.
The EGFP expressing cells in controls and all compounds were quantified with Cellomics Neuronal Profiling Algorithm.

[4] = tested on: one year old rats, caudal cerebellar peduncle lesions; assay: focal ethidium bromide induced rat model of demyelination; assay type: in vivo; conditions: IRX4204 10 mg/kg/day oral, thyroxine 20 ng/g s.c., 14 days
Experimental: The experiment uses rats of relatively advanced age (1 year) since such rats undergo remyelination in a less efficient manner, thereby providing data that are more relevant to the clinical treatment of human patients with multiple sclerosis or other demyelination disorders.
Focal demyelination is induced in one year old rats (approximately 300 g in weight) by injecting stereotactically 5 μl of ethidium bromide solution (0.01% vol/vol in saline) in a bilateral manner into the caudal cerebellar peduncles (CCP). […] The rats are killed on day 24 post-ethidium bromide treatment for analysis of remyelination by quantitative polymerase chain reaction (qPCR) and microscopy.

[5] = tested on: C57BL/6J mice with cuprizone+rapamycin demyelination; assay: 12-week cuprizone/rapamycin demyelination model, 6 weeks of treatment; assay type: in vivo, mouse; conditions: 6 weeks of treatment after 12 weeks CR
Text: All animals were sacrificed after 12 weeks of CR or after further 6 weeks of treatment to evaluate myelin in white matter (corpus callosum) and gray matter (hippocampus and cortex). In addition, the size of myelinated axons was quantified and the large myelinated axons were further assessed by 3D-electron microscopy (3D-EM). A total of 40 animals were included in the study, where all 40 animals received CR demyelination for 12 weeks. After demyelination, a subset (n=10) of animals are sacrificed to serve as controls to assess baseline demyelination. […] Floating brain sections are immunostained with myelin prolipid protein (PLP) to visualize and quantify myelin in gray matter, hippocampus (FIG. 16A) and cortex (FIG. 16B).

[6] = tested on: C57BL/6J mice with cuprizone+rapamycin demyelination; assay type: in vivo
[7] = tested on: early Parkinson's Disease subjects; assay: open-label clinical study in early Parkinson's Disease subjects; assay type: in vivo, human; conditions: for Change in TSH / Total Motor Change / Total UPDRS Change: 15 days
Experimental: An open-label, single site clinical study of early Parkinson's Disease subjects treated with IRX4204 was conducted to determine whether the preclinical promise of IRX4204 as a disease modifying agent for PD will translate to the clinical setting upon treatment of early PD patients with IRX4204 as determined by Unified Parkinson's Disease Rating Scale (UPDRS) measurements and safety assessments. The changes in UPDRS scores were correlated with circulating thyroxine levels.
Five subjects were recruited for each of the three dose levels. All fifteen subjects completed 15 days of dosing.
All subjects ([…]) completed 15 days of dosing and returned to the clinic at the end of 2 weeks (day 15-17) for UPDRS score determination and safety assessments including determination of plasma thyroxine (T4) levels. Percent changes in Total Motor scores, Total UPDRS scores and plasma T4 values were determined according to the following: […]

[8] = tested on: rat 6-OHDA induced Parkinson Disease (PD) model; assay: rat 6-OHDA induced Parkinson Disease model, paw placement (cylinder test); assay type: in vivo; conditions: day 24; IRX4204 10 mg/kg PO, T3 1.5 μg/kg and T4 9 μg/kg SC
Experimental: The paw placement (cylinder test) was used for assessment of the damage. This test assessed a rat's independent forelimb use to support the body against the walls of a cylindrical enclosure. The test took advantage of the animals' innate drive to explore a novel environment by standing on the hind limbs and leaning towards the enclosing walls.
To perform this test, rats were placed individually in a glass cylinder (21 cm diameter, 34 cm height) and wall exploration was recorded for 3 minutes. No habituation to the cylinder prior to recording was allowed.
The statistical analysis was performed as ratio between the intact and impaired legs (R/L ratio). The ratio was expressed as the values of intact right+both forelimbs divided by the values of impaired left +both forelimbs. A lower value of the ratio means greater healing of the 6-OHDA induced brain damage.
Once a week during three weeks (study days 10, 17 and 24), the animals were re-tested for their performance in the paw placement test.

[9] = tested on: mouse oligodendrocyte progenitor cells (OPCs); assay: mouse OPC differentiation with IRX4204 and T3; assay type: cell-based; conditions: 5-day treatment; IRX4204 10, 1, 0.1 nM
Experimental: OPCs were derived from plp-EGFP expressing mice.
Therapeutic agents were tested in 96-well plates (6 wells per concentration). […] All media contained 0.1% DMSO. At the end of the 5-day treatment, cells were imaged on Cellomics in two channels and algorithms were used to count nuclei and EGFP+oligodendrocytes.

[10] = 200 μg/day, restimulation with PMA/Ionomycin
[11] = 50 μg i.p. every other day from day 7, n=6

T2 sequence (P43354 whole entry partner, one chain of several): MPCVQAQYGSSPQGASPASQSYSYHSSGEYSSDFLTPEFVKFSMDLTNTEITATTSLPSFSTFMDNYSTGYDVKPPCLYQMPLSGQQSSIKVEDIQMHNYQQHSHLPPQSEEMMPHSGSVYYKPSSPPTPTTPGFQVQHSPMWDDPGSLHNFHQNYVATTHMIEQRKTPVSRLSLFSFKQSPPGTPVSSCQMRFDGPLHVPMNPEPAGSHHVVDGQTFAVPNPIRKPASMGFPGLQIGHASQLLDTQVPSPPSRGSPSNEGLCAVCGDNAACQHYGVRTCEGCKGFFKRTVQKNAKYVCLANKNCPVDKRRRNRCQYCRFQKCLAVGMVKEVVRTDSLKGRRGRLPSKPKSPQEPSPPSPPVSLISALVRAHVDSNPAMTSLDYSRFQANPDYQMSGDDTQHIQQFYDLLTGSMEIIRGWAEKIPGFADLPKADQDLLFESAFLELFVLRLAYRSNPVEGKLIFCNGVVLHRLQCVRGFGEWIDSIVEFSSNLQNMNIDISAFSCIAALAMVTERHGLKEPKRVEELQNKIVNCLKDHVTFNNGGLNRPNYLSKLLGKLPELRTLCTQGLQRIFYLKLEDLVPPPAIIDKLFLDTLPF
Chain of RXRγ (P48443 whole entry): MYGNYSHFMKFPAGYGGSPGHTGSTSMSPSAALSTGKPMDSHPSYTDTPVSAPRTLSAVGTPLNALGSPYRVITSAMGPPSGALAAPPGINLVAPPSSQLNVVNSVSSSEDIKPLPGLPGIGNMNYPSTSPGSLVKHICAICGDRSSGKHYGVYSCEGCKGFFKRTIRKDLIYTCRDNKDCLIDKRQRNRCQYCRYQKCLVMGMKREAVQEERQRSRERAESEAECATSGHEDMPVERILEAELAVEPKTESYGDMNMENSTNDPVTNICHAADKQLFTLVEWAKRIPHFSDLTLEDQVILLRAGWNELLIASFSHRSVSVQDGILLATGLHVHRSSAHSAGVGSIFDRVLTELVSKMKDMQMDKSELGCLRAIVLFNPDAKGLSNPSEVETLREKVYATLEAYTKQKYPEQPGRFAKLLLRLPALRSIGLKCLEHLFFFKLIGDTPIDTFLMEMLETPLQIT

CC(/C=C/[C@@H]1C[C@]1(C)c1ccc2c(c1)C(C)(C)CCC2(C)C)=C\C(=O)O [IRX4204, 3,7-dimethyl-6(S),7(S)-methano,7-[1,1,4,4-tetramethyl-1,2,3,4-tetrahydronaphth-7-yl]2(E),4(E) heptadienoic acid]
Efficacy (% of 1 μM IRX4204) RXRα (RXRα; CV-1 cells): 100 % of 1 μM IRX4204
more potent in activating RXR receptors rather than RAR receptors (RXRα; RXR versus RAR receptors): > 1,000 fold
Efficacy (% of 1 μM IRX4204) RXRγ (RXRγ): 100 % of 1 μM IRX4204
symptoms of EAE (scores of disease severity over time) [1]: significantly reduces the symptoms of EAE
disease overall (EAE score) (B6 mice with EAE; 50 μg, 100 μg or 200 μg every day from day 8): significantly less disease overall
CCR6 expression on CD4 T cells, spleen (B6 mice with EAE; 200 μg/day): lowered
CD4+ CD25hi cells (number), spleen (B6 mice with EAE; 200 μg/day): reduced
co-expression of IFNg and IL-17A by CD4 T cells in CNS (B6 mice with EAE; 200 μg/day): not significantly different between groups
frequency of CD4+ CD25hi cells, spleen (B6 mice with EAE; 200 μg/day): not altered
total number of effector and memory CD4 T cells (CD44), spleen (B6 mice with EAE; 200 μg/day): decreased
total number of infiltrating CD4 T cells in the CNS (B6 mice with EAE; 200 μg/day): reduced
total number of recently activated CD4 T cells (CD69 and CD44), spleen (B6 mice with EAE; 200 μg/day): decreased
IFNγ, CNS infiltrating lymphocytes (B6 mice with EAE; [10]): significantly reduced
TNF, CNS infiltrating lymphocytes (B6 mice with EAE; [10]): significantly reduced
infiltration of CD4+ cells in to the CNS [2]: significant reduction
infiltration of CD11c+ CD11b+ cells (myeloid DC) in to the CNS [2]: significant reduction
Mean Maximum Score (SJL mice with EAE; 50 μg i.p. every other day from day 7): 1.5 ± 1.4
Death from Disease (SJL mice with EAE; [11]): 0/6
Disease Incidence (SJL mice with EAE; [11]): 4/6
symptoms of EAE (scores of disease severity) (SJL mice with EAE; 50 μg i.p. every other day, to day 14): significantly reduces the symptoms of EAE
activation of Nurr1/RXR permissive heterodimer (Nurr1/RXR heterodimer): selectively activates
OPC differentiation into oligodendrocytes (EGFP positive cells compared to DMSO) ([3]; all concentrations except the lowest (1^−6 μM)): significant increase; also recorded: dose dependent increase
total cell number and pyknotic cells ([3]; compared to controls): did not show any differences
Mbp expression (real-time qPCR of lesion samples) [4]: increase
Nkx2.2+ oligodendrocyte precursor cells (OPCs) in lesions [4]: increased
Pdgfra expression (real-time qPCR of lesion samples) [4]: increase
density of CC1+ differentiated oligodendrocytes in lesions [4]: increased
density of Olig2+ oligodendrocyte lineage cells in lesions [4]: increased
remyelinated axons (ultrastructural analyses of CCP lesions) [4]: more remyelinated axons than vehicle treatment
size of myelinated axons in the corpus callosum [5]: significantly increases; also recorded: shift in distribution to larger axon diameter
terminal body weights ([6]; ANOVA, IRX4204 or vehicle groups): no significant difference
number of SMI32 positive axonal ovoids in corpus callosum ([6]; IRX4204 10 mg/kg PO, T4 20 ng/g SQ, daily 6 weeks, versus Vehicle, 10 mg/kg): trend towards decreased number of axonal ovoids but was not statistically different from the Vehicle; also recorded: trend towards decrease in axonal ovoids, but it was statistically not different from vehicle
microglial/macrophage activation (Iba1 staining) in corpus callosum ([6]; daily 6 weeks, versus vehicle): no difference
decrease in T4 levels compared to vehicle control animals ([6]; terminal blood draw): ~50%
Change in TSH ([7]; 5 mg/day): −28.9%
Total Motor Change ([7]; 5 mg/day): −31.4%
Total UPDRS Change ([7]; 5 mg/day): −18.7%
Change in TSH ([7]; 10 mg/day): −36.6%
Total UPDRS Change ([7]; 10 mg/day): −13.6%
reduction in Total UPDRS scores ([7]; 20 mg/day): 6.6%
reduction of plasma T4 ([7]; 20 mg/day): 98.8%
Change in TSH ([7]; 20 mg/day): −98.8%
Total Motor Change ([7]; 20 mg/day): −14.5%
mean body weight [8]: 157.17±2.93%
oligodendrocyte production (EGFP+ oligodendrocytes) [9]: clear dose-responses

N[C@@H](Cc1cc(I)c(Oc2ccc(O)c(I)c2)c(I)c1)C(=O)O [T3, triiodothyronine, reference compound]
oligodendrocyte production (EGFP+ oligodendrocytes) [9]: clear dose-responses
